Experimental data taken from EP4745134A1 (Jiangsu Yahong Meditech Co., Ltd., priority 2023, dated 2025).
Where two headings read alike, the source gives them in different places.

How the values were obtained:
[1] = tested on: HCT116-WT cells; test: Inhibitory activity against cell proliferation (CellTiter Glo, 6 days), HCT116-WT; format: cell-based; conditions: 144 h
How it was run: (§1)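 Luminescence read-out (CellTiter Glo, 10 min shaking at room temperature) after 6 days of compound exposure; IC50 fitted against DMSO controls. Top dose 10000 nM, 4-fold steps, 8 points; 250 cells/well in McCoy's 5A + 10% FBS.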

[2] = target: PRMT5-MTA (Homo sapiens, UniProt O14744); test: Enzymatic inhibitory activity against PRMT5-MTA (AlphaScreen); format: biochemical
Sequence of PRMT5-MTA (O14744 whole entry): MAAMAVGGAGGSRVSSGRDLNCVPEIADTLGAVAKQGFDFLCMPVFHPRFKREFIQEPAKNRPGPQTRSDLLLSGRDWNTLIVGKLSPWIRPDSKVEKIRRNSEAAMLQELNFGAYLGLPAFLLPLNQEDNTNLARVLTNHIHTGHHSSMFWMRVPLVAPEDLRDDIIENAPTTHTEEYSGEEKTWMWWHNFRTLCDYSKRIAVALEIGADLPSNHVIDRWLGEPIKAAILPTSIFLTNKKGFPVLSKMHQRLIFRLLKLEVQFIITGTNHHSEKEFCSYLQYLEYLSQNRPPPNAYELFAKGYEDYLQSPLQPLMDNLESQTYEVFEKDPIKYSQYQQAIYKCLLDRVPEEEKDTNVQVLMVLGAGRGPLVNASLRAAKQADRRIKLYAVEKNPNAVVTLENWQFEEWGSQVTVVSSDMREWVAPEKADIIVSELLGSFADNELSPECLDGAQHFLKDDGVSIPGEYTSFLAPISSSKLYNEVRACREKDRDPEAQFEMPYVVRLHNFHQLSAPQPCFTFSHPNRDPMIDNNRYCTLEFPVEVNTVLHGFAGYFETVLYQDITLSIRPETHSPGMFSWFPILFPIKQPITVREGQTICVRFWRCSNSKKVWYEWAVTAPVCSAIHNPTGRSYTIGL
Sequence of PRMT5-MTA (Q9BQA1 whole entry partner): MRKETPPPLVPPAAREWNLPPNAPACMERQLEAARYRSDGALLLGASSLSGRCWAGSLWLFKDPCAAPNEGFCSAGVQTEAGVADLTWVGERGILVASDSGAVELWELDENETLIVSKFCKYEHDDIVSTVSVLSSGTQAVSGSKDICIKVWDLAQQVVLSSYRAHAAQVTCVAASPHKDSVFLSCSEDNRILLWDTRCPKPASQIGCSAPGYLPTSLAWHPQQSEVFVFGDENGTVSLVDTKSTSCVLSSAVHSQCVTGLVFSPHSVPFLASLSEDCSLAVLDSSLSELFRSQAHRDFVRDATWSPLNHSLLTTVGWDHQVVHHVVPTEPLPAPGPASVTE
How it was run: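 PRMT5/[…] (1 nM) was preincubated for 30 min at room temperature with 1 µM […] and 2.5 µM SAM, then exposed to compound (10-point, 3-fold from 1000 nM) for 15 min at 23 °C. Histone H4 substrate (5 nM) was added and reacted for 45 min at 23 °C. Symmetric dimethyl-R3 H4 was detected by AlphaScreen and IC50 calculated.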

[3] = tested on: HCT116 MTAP KO cells; test: Inhibitory activity against cell proliferation (CellTiter Glo, 6 days), HCT116 MTAP KO; format: cell-based; conditions: for IC50: Homo sapiens, HCT-116, 144 h; for Selectivity HCT 116-WT/ HCT116 MTAP KO: ratio of IC50 HCT116-WT / HCT116 MTAP KO
How it was run: as §1

[4] = HCT116-WT cells, 6 days, CellTiter Glo, read-out: HCT116-WT IC50
[5] = HCT116 MTAP KO cells, 6 days, CellTiter Glo, read-out: HCT116 MTAP KO IC50

Cc1cc2cc(C(=O)N(Cc3ccc(-c4scnc4CF)cn3)N(C)c3ncccn3)ccc2nc1N [Example 242, 2-amino-N-((5-(4-(fluoromethyl)thiazol-5-yl)pyridin-2-yl)methyl)-N',3-dimethyl-N'-(pyrimidin-2-yl)quinoline-6-carbohydrazide]
IC50 [1, 4]: 235 nM | IC50 ([2]; read-out: IC50): 5.9 nM | IC50 [3, 5]: 8.4 nM | Selectivity HCT 116-WT/ HCT116 MTAP KO [3]: 27.98

Cc1cc2cc(C(=O)N(Cc3ccc(-c4scnc4C#N)cn3)N(C)c3ncccn3)ccc2nc1N [Example 243, 2-amino-N-((5-(4-cyanothiazol-5-yl)pyridin-2-yl)methyl)-N',3-dimethyl-N'-(pyrimidin-2-yl)quinoline-6-carbohydrazide]
IC50 [1, 4]: 148 nM | IC50 ([2]; read-out: IC50): 3.4 nM | IC50 [3, 5]: 6.5 nM | Selectivity HCT 116-WT/ HCT116 MTAP KO [3]: 22.77

Cc1cc2cc(C(=O)N(Cc3ccc(-c4cnc(C(F)(F)F)s4)cn3)N(C)c3ncccn3)ccc2nc1N [Example 244, 2-amino-N',3-dimethyl-N'-(pyrimidin-2-yl)-N-((5-(2-(trifluoromethyl)thiazol-5-yl)pyridin-2-yl)methyl)quinoline-6-carbohydrazide]
IC50 [1, 4]: 581 nM | IC50 ([2]; read-out: IC50): 4.2 nM | IC50 [3, 5]: 41 nM | Selectivity HCT 116-WT/ HCT116 MTAP KO [3]: 14.17

Cc1cc2cc(C(=O)N(Cc3ccc(-c4nncs4)cn3)N(c3ncccn3)C3CC3)ccc2nc1N [Example 250, N-((5-(1,3,4-thiadiazol-2-yl)pyridin-2-yl)methyl)-2-amino-N'-cyclopropyl-3-methyl-N'-(pyrimidin-2-yl)quinoline-6-carbohy drazide]
IC50 [1, 4]: 820 nM | IC50 ([2]; read-out: IC50): 3.7 nM | IC50 [3, 5]: 41 nM | Selectivity HCT 116-WT/ HCT116 MTAP KO [3]: 20.00

CCOc1ccc(CN(C(=O)c2ccc3nc(N)c(C)cc3c2)N(C)c2ncccn2)nc1 [Example 264, 2-amino-N-((5-ethoxypyridin-2-yl)methyl)-N',3-dimethyl-N'-(pyrimidin-2-yl)quin oline-6-carbohydrazide]
IC50 [1, 4]: 2480 nM | IC50 ([2]; read-out: IC50): 1 nM | IC50 [3, 5]: 138 nM | Selectivity HCT 116-WT/ HCT116 MTAP KO [3]: 17.97

Cc1cc2cc(C(=O)N(Cc3ccc(C(F)(F)F)cn3)N(C)c3nccc4c3ncn4C)ccc2nc1N [Example 265, 2-amino-N',3-dimethyl-N'-(1-methyl-1H-imidazo[4,5-c]pyridin-4-yl)-N-((5-(trifluoromethyl)pyridin-2-yl)methyl)quinoline-6-carbohydrazide]
IC50 [1, 4]: 549 nM | IC50 ([2]; read-out: IC50): 2 nM | IC50 [3, 5]: 38 nM | Selectivity HCT 116-WT/ HCT116 MTAP KO [3]: 14.45

Cc1cc2cc(C(=O)N(Cc3ccc(C(F)(F)F)cn3)N(C)c3nccc4ccncc34)ccc2nc1N [Example 266, 2-amino-N',3-dimethyl-N'-(2,7-naphthyridin-1-yl)-N-((5-(trifluoromethyl)pyridin-2-yl)methyl)quinoline-6-carbohydrazide]
IC50 [1, 4]: 3140 nM | IC50 ([2]; read-out: IC50): 2.6 nM | IC50 [3, 5]: 231 nM | Selectivity HCT 116-WT/ HCT116 MTAP KO [3]: 13.60

Nc1nc2ccc(C(=O)N(Cc3ccc(C(F)(F)F)cn3)N(c3ncccn3)C3CC3)cc2cc1Br [Example 270, 2-amino-3-bromo-N'-cyclopropyl-N'-(pyrimidin-2-yl)-N-((5-(trifluoromethyl)pyridin-2-yl)methyl)quinoline-6-carbohydrazide]
IC50 [1, 4]: 1510 nM | IC50 ([2]; read-out: IC50): 4.9 nM | IC50 [3, 5]: 110 nM | Selectivity HCT 116-WT/ HCT116 MTAP KO [3]: 13.74

Cc1cc2cc(C(=O)N(Cc3ccc(C(F)(F)F)cn3)N(C)c3nccc4sccc34)ccc2nc1N [Example 271, 2-amino-N',3-dimethyl-N'-(thieno[3,2-c]pyridin-4-yl)-N-((5-(trifluoromethyl)pyridin-2-yl)methyl)quinoline-6-carbohydrazide]
IC50 [1, 4]: 1190 nM | IC50 ([2]; read-out: IC50): 2.7 nM | IC50 [3, 5]: 89 nM | Selectivity HCT 116-WT/ HCT116 MTAP KO [3]: 13.42

Cc1cc2cc(C(=O)N(Cc3ccc(C(F)(F)F)cn3)N(C)c3nccc4nc(C)c(C)nc34)ccc2nc1N [Example 272, 2-amino-N'-(2,3-dimethylpyrido[3,4-b]pyrazin-5-yl)-N',3-dimethyl-N-((5-(trifluoromethyl)pyridin-2-yl)methyl)quinoline-6-carbohydrazide]
IC50 [1, 4]: 3180 nM | IC50 ([2]; read-out: IC50): 2.6 nM | IC50 [3, 5]: 242 nM | Selectivity HCT 116-WT/ HCT116 MTAP KO [3]: 13.13

Cc1cc2cc(C(=O)N(Cc3ccc(C(F)F)cn3)N(C)c3ncccn3)ccc2nc1N [Example 273, 2-amino-N-((5-(difluoromethyl)pyridin-2-yl)methyl)-N',3-dimethyl-N'-(pyrimidin-2-yl)quinoline-6-carbohydrazide]
IC50 [1, 4]: 2280 nM | IC50 ([2]; read-out: IC50): 2.8 nM | IC50 [3, 5]: 78 nM | Selectivity HCT 116-WT/ HCT116 MTAP KO [3]: 29.27

Cc1cc2cc(C(=O)N(Cc3ccc(C(F)(F)F)cn3)N(C)c3nccc4ccsc34)ccc2nc1N [Example 274, 2-amino-N',3-dimethyl-N'-(thieno[2,3-c]pyridin-7-yl)-N-((5-(trifluoromethyl)pyridin-2-yl)methyl)quinoline-6-carbohydrazide]
IC50 [1, 4]: 2520 nM | IC50 ([2]; read-out: IC50): 3.7 nM | IC50 [3, 5]: 167 nM | Selectivity HCT 116-WT/ HCT116 MTAP KO [3]: 15.10

Cc1cnc(N(C)N(Cc2ccc(C(F)(F)F)cn2)C(=O)c2ccc3nc(N)c(C)cc3c2)nc1 [Example 276, 2-amino-N',3-dimethyl-N'-(5-methylpyrimidin-2-yl)-N-((5-(trifluoromethyl)pyridin-2-yl)methyl)quinoline-6-carbohydrazide]
IC50 [1, 4]: 1980 nM | IC50 ([2]; read-out: IC50): 1.6 nM | IC50 [3, 5]: 80 nM | Selectivity HCT 116-WT/ HCT116 MTAP KO [3]: 24.70

Cc1cc2cc(C(=O)N(Cc3ncc(Br)cc3F)N(C)c3ncccn3)ccc2nc1N [Example 277, 2-amino-N-((5-bromo-3-fluoropyridin-2-yl)methyl)-N',3-dimethyl-N'-(pyrimidin-2-yl)quinoline-6-carbohydrazide]
IC50 [1, 4]: 1910 nM | IC50 ([2]; read-out: IC50): 2.2 nM | IC50 [3, 5]: 79 nM | Selectivity HCT 116-WT/ HCT116 MTAP KO [3]: 24.23

Cc1cc2cc(C(=O)N(Cc3c(F)cc(Br)cc3F)N(C)c3ncccn3)ccc2nc1N [Example 278, 2-amino-N-(4-bromo-2,6-difluorobenzyl) -N',3-dimethyl-N'-(pyrimidin-2-yl)quinoline-6-carbohydrazide]
IC50 [1, 4]: 395 nM | IC50 ([2]; read-out: IC50): 1.5 nM | IC50 [3, 5]: 28 nM | Selectivity HCT 116-WT/ HCT116 MTAP KO [3]: 14.11

Cc1cc2nc(N)c3cnn(C)c3c2cc1C(=O)N(C)N1CCc2ccccc21 [Example 279]
IC50 ([1]; read-out: HCT116-WT IC50 (nM)): > 10000 nM | IC50 [2]: 4.3 nM | IC50 ([3]; read-out: HCT116 MTAP KO IC50 (nM)): 284 nM

COC1(c2ccc(CN(C(=O)c3ccc4nc(N)c(C)cc4c3)N(C)c3ncccn3)nc2)COC1 [Example 284, 2-amino-N-((5-(3-methoxyoxetan-3-yl)pyridin-2-yl)methyl)-N',3-dimethyl-N'-(pyrimidin-2-yl)quinoline-6-carbohydrazide]
IC50 [1, 4]: 3440 nM | IC50 ([2]; read-out: IC50): 2.3 nM | IC50 [3, 5]: 194 nM | Selectivity HCT 116-WT/ HCT116 MTAP KO [3]: 17.71

Cc1cc2cc(C(=O)N(Cc3ccc(C4(F)COC4)cn3)N(C)c3ncccn3)ccc2nc1N [Example 286, 2-amino-N-((5-(3-fluorooxetan-3-yl)pyridin-2-yl)methyl)-N',3-dimethyl-N'-(pyrimidin-2-yl)quinoline-6-carbohydrazide]
IC50 [1, 4]: 2420 nM | IC50 ([2]; read-out: IC50): 2.7 nM | IC50 [3, 5]: 91 nM | Selectivity HCT 116-WT/ HCT116 MTAP KO [3]: 26.60

Cc1cc2cc(C(=O)N(Cc3ccc(C4(F)CCC4)cn3)N(C)c3ncccn3)ccc2nc1N [Example 287, 2-amino-N-((5-(1-fluorocyclobutyl)pyridin-2-yl)methyl)-N',3-dimethyl-N'-(pyrimidin-2-yl)quinoline-6-carbohydrazide]
IC50 [1, 4]: 2560 nM | IC50 ([2]; read-out: IC50): 2.2 nM | IC50 [3, 5]: 113 nM | Selectivity HCT 116-WT/ HCT116 MTAP KO [3]: 22.69

Cc1cc2cc(C(=O)N(Cc3ccc(C4CCC4)cn3)N(C)c3ncccn3)ccc2nc1N [Example 289, 2-amino-N-((5-cyclobutylpyridin-2-yl)methyl)-N',3-dimethyl-N'-(pyrimidin-2-yl)quinoline-6-carbohydrazide]
IC50 [1, 4]: 691 nM | IC50 ([2]; read-out: IC50): 0.9 nM | IC50 [3, 5]: 53 nM | Selectivity HCT 116-WT/ HCT116 MTAP KO [3]: 13.04

Cc1cc2cc(C(=O)N(Cc3ccc(C(C)(F)F)cn3)N(C)c3ncccn3)ccc2nc1N [Example 291, 2-amino-N-((5-(1,1-difluoroethyl)pyridin-2-yl)methyl)-N',3-dimethyl-N'-(pyrimidin-2-yl)quinoline-6-carbohydrazide]
IC50 [1, 4]: 1050 nM | IC50 ([2]; read-out: IC50): 3.9 nM | IC50 [3, 5]: 39 nM | Selectivity HCT 116-WT/ HCT116 MTAP KO [3]: 26.90

Cc1cc2cc(C(=O)N(Cc3ccc(C(C)F)cn3)N(C)c3ncccn3)ccc2nc1N (stereo not shown) [Example 292, 2-amino-N-((5-(1-fluoroethyl)pyridin-2-yl)methyl)-N',3-dimethyl-N'-(pyrimidin-2-yl)q uinoline-6-carbohydrazide]
IC50 [1, 4]: 1520 nM | IC50 ([2]; read-out: IC50): 1.4 nM | IC50 [3, 5]: 50 nM | Selectivity HCT 116-WT/ HCT116 MTAP KO [3]: 30.30

CC(=O)c1ccc(CN(C(=O)c2ccc3nc(N)c(C)cc3c2)N(C)c2ncccn2)nc1 [Example 294, N-((5-acetylpyridin-2-yl)methyl)-2-amino-N',3-dimethyl-N'-(pyrimidin-2-yl)quinoline-6-carbohydrazide]
IC50 [1, 4]: 2900 nM | IC50 ([2]; read-out: IC50): 1.9 nM | IC50 [3, 5]: 113 nM | Selectivity HCT 116-WT/ HCT116 MTAP KO [3]: 25.71
